According to publication PMC6332299, “Nonprenylated Xanthones from Gentiana lutea, Frasera caroliniensis, and Centaurium erythraea as Novel Inhibitors of Vascular Smooth Muscle Cell Proliferation” (Molecules, 2015):

Columns and labels:
Assay type in all cases: cell-based
[1] = tested on: rat aortic VSMC; assay: Resazurin conversion assay of PDGF-induced VSMC proliferation; conditions: for IC50 / activity at 30 µM: PDGF-BB 20 ng/mL; for IC50: concentrations 1, 3, 10, 30 µM, read-out: Inhibition of VSMC Proliferation, Resazurin Conversion Assay, IC50; for activity at 30 µM: 30 µM compound, residual proliferation relative to PDGF + 0.1% DMSO control = 1.00, means ± SD, n = 3, read-out: Inhibition of VSMC Proliferation, Resazurin Conversion Assay, at 30 µM (Relative to Solvent vehicle = 1.00, RU); for Anti-proliferative activity in rat aortic VSMC (in words): summary rating of the 14 xanthones
Method: With the aim to identify novel natural product inhibitors of VSMC proliferation, we tested several natural products (not shown) from our in-house compound collection on their ability to inhibit proliferation of rat aortic VSMC induced by the platelet-derived growth factor (PDGF), which is a mitogen strongly associated with aberrant proliferation in restenosis and leads to excessive proliferation of VSMC. After stimulation of the VSMC for 48 h with PDGF, the total number of metabolically active cells was measured by resazurin conversion. In this way, the xanthone gentisin (1,7-dihydroxy-3-methoxyxanthone (1)), previously isolated from the root material of G. lutea, a well-known medicinal bitter plant from the Gentianaceae family, was identified as a novel inhibitor of VSMC proliferation. […] Although an anti-proliferative effect of a prenylated xanthone has been described earlier, it represents a novel activity for simple, nonprenylated xanthones.
(§1) Rat aortic VSMC were acquired from Lonza and grown in Dulbecco’s modified essential medium (DMEM)–F12 (1:1) supplemented with 20% fetal calf serum (FCS) and gentamycin. For all experiments, cells were seeded in 96-well plates (5 × 10^3 cells/well) and incubated for 24 h. Subsequently, cells were serum-starved for another 24 h to make them quiescent.
Quiescent VSMC were pre-treated with the studied test compounds, G. lutea root extract, or vehicle (0.1% DMSO) for 30 min and then stimulated with PDGF-BB (20 ng/mL) for 48 h. The number of metabolically active VSMC was measured by resazurin conversion. Therefore, after washing the cells with phosphate-buffered saline (PBS), they were incubated in serum-free medium containing resazurin (10 µg/mL) for 2 h. Measurement of total metabolic activity was performed by monitoring the increase in fluorescence at 590 nm using an excitation wavelength of 535 nm in a 96-well plate reader (Tecan GENios Pro, Grödig, Austria). The assay was validated using the VSMC proliferation inhibitor taxol (IC50 = 0.1 µM [21]).

[2] = tested on: rat aortic VSMC; assay: Assessment of cytotoxicity by LDH release; conditions: concentration range up to 30 µM; PDGF-BB 20 ng/mL, 24 h
Method: Loss of VSMC membrane integrity as a sign for cell death was quantified by measuring the release of the soluble cytosolic protein LDH.
as §1
Quiescent VSMC were pre-treated with test compounds, positive control (digitonin 100 µg/mL, corresponding to 81 µM), or vehicle (0.1% DMSO) for 30 min and then stimulated with PDGF-BB (20 ng/mL) for 24 h. Loss of cell membrane integrity as an indicator for cell death was quantified by measuring the release of LDH [31, 32]. Therefore, the LDH activity of the cell supernatant was determined. To estimate total LDH, identically treated samples were incubated in the presence of 1% Triton X-100 for 45 min. […] The enzyme reaction was stopped by oxymate (1.78 mg/mL) and the absorbance was read at 490 nm. The percentage of extracellular LDH enzyme activity was calculated to estimate potential effects of the samples on cell viability.

[3] = tested on: rat aortic VSMC; assay: BrdU incorporation assay (DNA synthesis) in PDGF-stimulated VSMC; conditions: PDGF-BB 20 ng/mL, BrdU added after 2 h, read after 22 h, read-out: Inhibition of VSMC Proliferation, BrdU Assay, IC50
Method: In this assay, the DNA synthesis in dividing VSMC is measured by quantification of BrdU incorporation into newly synthesized DNA.
as §1
Quiescent VSMC were pre-treated with test compounds or vehicle (0.1% DMSO) for 30 min and then stimulated with PDGF-BB (20 ng/mL) for 2 h. Subsequently, BrdU was added to estimate de novo DNA synthesis in VSMC [29, 30]. After 22 h, the BrdU incorporation was determined according to the instructions of the manufacturer (Roche Diagnostics, Vienna, Austria).

[4] = Rattus norvegicus, VSMC, 48 h, 48 h

Compound | Inhibition of PDGF-induced VSMC proliferation at 30 µM (in words) ([1]; 30 µM, 48 h, resazurin conversion) | IC50 ([1]; 48 h) [µM] | IC50 [1, 4] [µM] | activity at 30 µM ([1]; Rattus norvegicus, VSMC, 48 h) [%] | Anti-proliferative activity in rat aortic VSMC (in words) [1] | Cytotoxicity (LDH release in the culture medium) [2] | IC50 [3] [µM]
COc1cc(O)c2c(=O)c3cc(O)ccc3oc2c1 [Compound 1, 1,7-dihydroxy-3-methoxyxanthone] | completely inhibited PDGF-induced proliferation to the basal level | 7.84 | 7.8 | 33.5 ± 17.5 | most potent compound | not cytotoxic | 5.74
COc1ccc2oc3cc(O)cc(O)c3c(=O)c2c1 [Compound 2, 1,3-dihydroxy-7-methoxyxanthone] |  |  | 27 | 59.3 ± 8.4 | moderately active |  | 
COc1cc2oc3c(OC)cccc3c(=O)c2c(O)c1OC [Compound 3, 1-hydroxy-2,3,5-trimethoxyxanthone] |  |  |  | 83.2 ± 10.4 | weakly active or inactive |  | 
COc1c(OC)c(O)c2c(=O)c3cccc(OC)c3oc2c1OC [Compound 4, 1-hydroxy-2,3,4,5-tetramethoxyxanthone] |  |  | 11.2 | 21.6 ± 5.8 | potent inhibitory activity | not cytotoxic | 24.5
COc1ccc2oc3c(OC)c(OC)c(OC)c(O)c3c(=O)c2c1 [Compound 5, 1-hydroxy-2,3,4,7-tetramethoxyxanthone] |  |  |  | 75.4 ± 1.4 | weakly active or inactive |  | 
COc1cc(O)c2c(=O)c3c(O)ccc(OC)c3oc2c1 [Compound 6, 1,8-dihydroxy-3,5-dimethoxyxanthone] |  |  | 12.5 | 51.4 ± 6.7 | potent inhibitory activity | not cytotoxic | 7.37
COc1cc(O)c2c(=O)c3c(O)c(OC)ccc3oc2c1 [Compound 7, 1,8-dihydroxy-3,7-dimethoxyxanthone] |  |  | 10.2 | 0.2 ± 1.4 | potent inhibitory activity | not cytotoxic | 7.53
COc1cc(O)c2c(=O)c3cccc(O)c3oc2c1 [Compound 8, 1,5-dihydroxy-3-methoxyxanthone] |  |  | 29.5 | 71.3 ± 6.1 | moderately active |  | 
COc1cc(O)c2c(=O)c3c(O)ccc(O)c3oc2c1 [Compound 9, 1,5,8-trihydroxy-3-methoxyxanthone] |  |  |  | 78.3 ± 3.1 |  |  | 
COc1cc(O)c2c(=O)c3ccc(O)c(OC)c3oc2c1 [Compound 10, 1,6-dihydroxy-3,5-dimethoxyxanthone] |  |  |  | 98.7 ± 2.5 |  |  | 
COc1c(O)cc2oc3c(OC)c(O)ccc3c(=O)c2c1O [Compound 11, 1,3,6-trihydroxy-2,5-dimethoxyxanthone] |  |  |  | 94.2 ± 4.2 |  |  | 
COc1cc(O)c2c(=O)c3c(OC)c(OC)c(O)c(OC)c3oc2c1 [Compound 12, 1,6-dihydroxy-3,5,7,8-tetramethoxyxanthone] |  |  |  | 86.2 ± 6.8 |  |  | 
COc1cc(O)c2c(=O)c3c(O)c(OC)c(O)c(OC)c3oc2c1 [Compound 13, 1,6,8-trihydroxy-3,5,7-trimethoxyxanthone] |  |  |  | 84.6 ± 9.6 |  |  | 
COc1c(O)cc2oc3c(O)cccc3c(=O)c2c1O [Compound 14, 1,3,5-trihydroxy-2-methoxyxanthone] |  |  |  | 86.2 ± 10.4 |  |  | 
